# Data reported in patent US3960845A, “Process for preparing 7β-acylamino-7α-alkoxycephalosporins or 6β-acylamino-6α-alkoxypenicillins” (Sankyo Company Limited, priority 1974, dated 1976).
# Where two headings read alike, the source gives them in different places.
# Assays:
# Assay type in all cases: cell-based
# [1] = system: Staphylococcus aureus 209p; test: Minimal inhibitory concentration; conditions: for MIC: read-out: Minimal inhibitory concentration
# From the text: (§1) Minimal inhibitory concentrations of various microorganisms mcg/ml
# 1 A Staphylococcus aureus 209p
# [2] = system: Staphylococcus aureus (CP and PC resistant); test: Minimal inhibitory concentration; conditions: I B: Staphylococcus aureus (CP and PC resistant)
# From the text: as §1
# 1 B Staphylococcus aureus
# E. coli NIHJ = test: Minimal inhibitory concentration; conditions: II A: E. coli NIHJ; for MIC: Escherichia coli
# From the text: as §1
# Proteus vulgaris = test: Minimal inhibitory concentration; conditions: for MIC: read-out: Minimal inhibitory concentration
# From the text: as §1
# [3] = system: E. coli 609 (CER resistant); test: Minimal inhibitory concentration; conditions: II B: E. coli 609 (CER resistant); for MIC: Escherichia coli, read-out: Minimal inhibitory concentration
# From the text: as §1
# II B E. coli 609 (CER resistant)
# [4] = system: Shigella flexneri Komagome; test: Minimal inhibitory concentration; conditions: III: Shigella flexneri Komagome; for MIC: read-out: Minimal inhibitory concentration
# From the text: as §1
# III Shigella flexneri Komagome
# Klebsiella neumoniae 806 = test: Minimal inhibitory concentration
# From the text: as §1
# IV A Klebsiella neumoniae 806
# [5] = system: Klebsiella neumoniae 846 (CER resistant); test: Minimal inhibitory concentration; conditions: IV B: Klebsiella neumoniae 846 (CER resistant)
# From the text: as §1
# IV B Klebsiella neumoniae 846 (CER resistant)
# [6] = system: Salmonella enteritidis Gaertner; test: Minimal inhibitory concentration; conditions: for MIC: Salmonella enterica, read-out: Minimal inhibitory concentration
# From the text: as §1
# VI Salmonella enteritidis Gaertner
# [7] = system: broad pathogenic microorganisms; test: antimicrobial activity; conditions: result in words
# [8] = I A: Staphylococcus aureus 209p
# [9] = IV A: Klebsiella neumoniae 806, read-out: Minimal inhibitory concentration
# [10] = VI: Salmonella enteritidis Gaertner
Compound,"MIC [1, 8] [µg/mL]",MIC [2] [µg/mL],MIC (E. coli NIHJ) [µg/mL],MIC (Proteus vulgaris; V: Proteus vulgaris) [µg/mL],MIC [3] [µg/mL],MIC [4] [µg/mL],MIC (Klebsiella neumoniae 806; [9]) [µg/mL],MIC [5] [µg/mL],"MIC [6, 10] [µg/mL]",antimicrobial activity against broad pathogenic microorganisms [7],other results
CO[C@@]1(NC(=O)CSc2ncc[nH]2)C(=O)N2C(C(=O)O)=C(CSc3nnnn3C)CS[C@@H]21 [7β-(imidazol-2-yl)thioacetamido-7α-methoxy-3-(1-methyl-1H-tetrazol-5-yl)thiomethyl-3-cephem-4-carboxylic acid],0.8,3.1,6.2,12.5,6.2,6.2,6.2,> 200,3.1,excellent antimicrobial activity,–
CO[C@@]1(NC(=O)CSc2ncc[nH]2)C(=O)N2C(C(=O)O)=C(COC(N)=O)CS[C@@H]21 [7β-(imidazol-2-yl)thioacetamido-7α-methoxy-3-carbamoyloxymethyl-3-cephem-4-carboxylic acid],≤ 0.1,0.8,1.5,6.2,3.1,3.1,3.1,> 200,1.5,excellent antimicrobial activity,–
CO[C@@]1(NC(=O)CSc2ccon2)C(=O)N2C(C(=O)O)=C(COC(C)=O)CS[C@@H]21 [7β-(3-isoxazolyl)thioacetamido-7α-methoxy-3-acetoxymethyl-3-cephem-4-carboxylic acid],0.2,0.8,3.1,3.1,6.2,6.2,3.1,> 400,1.5,excellent antimicrobial activity,–
CO[C@@]1(NC(=O)CSc2ncc[nH]2)C(=O)N2C(C(=O)O)=C(COC(C)=O)CS[C@@H]21 [7β-(imidazol-2-yl)thioacetamido-7α-methoxy-3-acetoxymethyl-3-cephem-4-carboxylic acid],1.5,6.2,12.5,25,25,25,12.5,> 400,6.2,excellent antimicrobial activity,–
CO[C@@]1(NC(=O)CSCC#N)C(=O)N2C(C(=O)O)=C(COC(C)=O)CS[C@@H]21 [7β-cyanomethylthioacetamido-7α-methoxy-3-acetoxymethyl-3-cephem-4-carboxylic acid],0.2,0.8,1.5,6.2,1.5,3.1,1.5,> 400,0.8,excellent antimicrobial activity,–
CO[C@@]1(NC(=O)CSCC#N)C(=O)N2C(C(=O)O)=C(COC(N)=O)CS[C@@H]21 [7β-cyanomethylthioacetamido-7α-methoxy-3-carbamoyloxymethyl-3-cephem-4-carboxylic acid],0.8,1.5,1.5,6.2,0.8,3.1,0.4,> 400,0.4,excellent antimicrobial activity,–
C#CCSCC(=O)N[C@]1(OC)C(=O)N2C(C(=O)O)=C(COC(C)=O)CS[C@@H]21 [7β-propargylthioacetamido-7α-methoxy-3-acetoxymethyl-3-cephem-4-carboxylic acid],0.8,3.1,3.1,6.2,6.2,6.2,6.2,> 400,1.5,excellent antimicrobial activity,–
CO[C@@]1(NC(=O)COc2ccon2)C(=O)N2C(C(=O)O)=C(COC(C)=O)CS[C@@H]21 [7β-(3-isoxazolyloxy)acetamido-7α-methoxy-3-acetoxymethyl-3-cephem-4-carboxylic acid],≤ 0.1,0.8,6.2,–,6.2,12.5,6.2,> 400,3.1,excellent antimicrobial activity,MIC (Proteus vulgaris; Proteus vulgaris): 12.5 µg/mL
"CO[C@@]1(NC(=O)CSc2nnc(C)s2)C(=O)N2C(C(=O)O)=C(CSc3nnnn3C)CS[C@@H]21 [7β-(5-methyl-1,3,4-thiadiazol-2-yl)thioacetamido-7α-methoxy-3-(1-methyl-1H-tetrazol-5-yl)thiomethyl-3-cephem-4-carboxylic acid]",0.4,1.5,12.5,3.1,12.5,6.2,12.5,400,1.5,excellent antimicrobial activity,–
CO[C@@]1(NC(=O)COc2ccon2)C(=O)N2C(C(=O)O)=C(CSc3nnnn3C)CS[C@@H]21 [7β-(3-isoxazolyloxy)acetamido-7α-methoxy-3-(1-methyl-1H-tetrazol-5-yl)thiomethyl-3-cephem-4-carboxylic acid],–,–,–,–,–,–,–,–,–,excellent antimicrobial activity,"Minimal inhibitory concentration [1, 8]: 0.2 µg/mL; Minimal inhibitory concentration [2]: 0.8 µg/mL; Minimal inhibitory concentration (E. coli NIHJ): 3.1 µg/mL; Minimal inhibitory concentration (Proteus vulgaris; V: Proteus vulgaris): 6.2 µg/mL; Minimal inhibitory concentration [3]: 3.1 µg/mL; Minimal inhibitory concentration [4]: 3.1 µg/mL; Minimal inhibitory concentration (Klebsiella neumoniae 806; IV A: Klebsiella neumoniae 806): 3.1 µg/mL; Minimal inhibitory concentration [5]: > 400 µg/mL; Minimal inhibitory concentration [6, 10]: 1.5 µg/mL"
CO[C@@]1(NC(=O)CS(C)(=O)=O)C(=O)N2C(C(=O)O)=C(CSc3nnnn3C)CS[C@@H]21 [7β-methylsulfonylacetamido-7α-methoxy-3-(1-methyl-1H-tetrazole-5-yl)thiomethyl-3-cephem-4-carboxylic acid],0.8,3.1,1.5,12.5,1.5,1.5,0.8,400,0.4,excellent antimicrobial activity,–
C#CCSCC(=O)N[C@]1(OC)C(=O)N2C(C(=O)O)=C(CSc3nnnn3C)CS[C@@H]21 [7β-propargylthioacetamido-7α-methoxy-3-(1-methyl-1H-tetrazol-5-yl)thiomethyl-3-cephem-4-carboxylic acid],0.2,0.8,3.1,3.1,3.1,3.1,3.1,400,0.8,excellent antimicrobial activity,–
CO[C@@]1(NC(=O)CSCC#N)C(=O)N2C(C(=O)O)=C(CSc3nnnn3C)CS[C@@H]21 [7β-cyanomethylthioacetamido-7α-methoxy-3-(1-methyl-1H-tetrazol-5-yl)thiomethyl-3-cephem-4-carboxylic acid],–,0.8,–,–,0.8,0.8,–,> 200,–,excellent antimicrobial activity,"MIC ([1]; Staphylococcus aureus, 209P): 0.2 µg/mL; MIC (Proteus vulgaris; Proteus vulgaris): 1.5 µg/mL; MIC (Klebsiella neumoniae 806; Klebsiella, 806, read-out: Minimal inhibitory concentration): 0.8 µg/mL; MIC ([6]; ENTERITIDIS): 0.2 µg/mL"
